In the oligonucleotide strings, read from the 5' end, every base follows the letter of its sugar. An asterisk marks phosphorothioate; unmarked linkages are phosphodiester. Other units and linkages are bracketed, terminal groups are in braces. A string of capitals states the bases alone. e = 2'-O-(2-methoxyethyl) (MOE); [5mC] = 5-methylcytosine; d = 2'-deoxy (DNA)
Legend:
Factor XI mRNA [1] = test: Cynomolgus monkeys, escalating doses: liver Factor XI RNA analysis (Example 29); assay type: in vivo; conditions: escalating doses 5, 10, 25 mg/kg s.c. over 12 weeks, day 85
Protocol: Groups, each consisting of two male and three female monkeys, were injected subcutaneously with ISIS 416838, ISIS 416850, ISIS 416858, ISIS 416864, or ISIS 417002 in escalating doses. Antisense oligonucleotide was administered to the monkeys at 5 mg/kg three times per a week for week 1; 5 mg/kg twice per week for weeks 2 and 3; 10 mg/kg three times per week for week 4; 10 mg/kg twice per week for weeks 5 and 6; 25 mg/kg three times per week for week 7; and 25 mg/kg twice per week for weeks 8, 9, 10, 11, and 12. One control group, consisting of two male and three female monkeys, was injected subcutaneously with PBS according to the same dosing regimen. An additional experimental group, consisting of two male and three female monkeys, was injected subcutaneously with ISIS 416850 in a chronic, lower dose regimen. Antisense oligonucleotide was administered to the monkeys at 5 mg/kg three times per week for week 1; 5 mg/kg twice per week for week 2 and 3; 10 mg/kg three times per week for week 4; and 10 mg/kg twice per week for weeks 5 to 12. Body weights were measured weekly. Blood samples were collected 14 days and 5 days before the start of treatment and subsequently once per week for Factor XI protein activity analysis in plasma and measurement of various hematologic factors. On day 85, the monkeys were euthanized by exsanguination while under deep anesthesia, and organs harvested for further analysis.
On day 85, RNA was extracted from liver tissue for real-time PCR analysis of Factor XI using primer probe set LTS00301 (forward primer sequence […], designated herein as SEQ ID NO 271; reverse primer sequence […], designated herein as SEQ ID NO: 272; and probe sequence TGCAGGCACAGCATCCCAGTGTTCTX, wherein X is a fluorphore, designated herein as SEQ ID NO. 273). Results are presented as percent inhibition of Factor XI, relative to PBS control.

human Factor XI mRNA = test: Dose-dependent inhibition and IC50 in HepG2 cells, electroporation (Example 15); assay type: cell-based
How it was run: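 HepG2 cells were electroporated with antisense oligonucleotide at 123.46, 370.37, 1,111.11, 3,333.33 and 10,000 nM and harvested after about 16 h. Factor XI mRNA was quantified by qRT-PCR (primer probe set RTS 2966), normalized to RIBOGREEN total RNA, and expressed as percent inhibition versus untreated cells.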

Factor XI mRNA [2] = test: Cynomolgus monkeys, 25 mg/kg: liver Factor XI RNA analysis (Example 30); assay type: in vivo; conditions: for % inhibition of Factor XI mRNA in liver relative to the PBS control: 25 mg/kg s.c., day 55
Protocol: (§1) Groups, each consisting of two male and two female monkeys, were injected subcutaneously with 25 mg/kg of ISIS 416850, ISIS 449709, ISIS 445522, ISIS 449710, ISIS 449707, ISIS 449711, ISIS 449708, 416858 and ISIS 445531. Antisense oligonucleotide was administered to the monkeys at 25 mg/kg three times per week for week 1 and 25 mg/kg twice per week for weeks 2 to 8. A control group, consisting of two male and two female monkeys was injected subcutaneously with PBS according to the same dosing regimen. Body weights were taken 14 days and 7 days before the start of treatment and were then measured weekly throughout the treatment period. Blood samples were collected 14 days and 5 days before the start of treatment and subsequently several times during the dosing regimen for measurement of various hematologic factors. On day 55, the monkeys were euthanized by exsanguination while under deep anesthesia, and organs harvested for further analysis.
On day 55, RNA was extracted from liver tissue for real-time PCR analysis of Factor XI using primer probe set LTS00301. Results are presented as percent inhibition of Factor XI, relative to PBS control.

Factor XI protein = test: Cynomolgus monkeys: plasma Factor XI protein ELISA (Example 30); assay type: in vivo; conditions: for Inhibition of Factor XI protein relative to the PBS control: 25 mg/kg s.c., plasma ELISA
Protocol: as §1
Plasma samples from all monkey groups taken on different days were analyzed by a sandwich-style ELISA assay (Affinity Biologicals Inc.) using an affinity-purified polyclonal anti-Factor XI antibody as the capture antibody and a peroxidase-conjugated polyclonal anti-Factor XI antibody as the detecting antibody. Monkey plasma was diluted 1:50 for the assay. Peroxidase activity was expressed by incubation with the substrate o-phenylenediamine. The color produced was quantified using a microplate reader at 490 nm and was considered to be proportional to the concentration of Factor XI in the samples.
The results are presented in Table 148, expressed as percentage reduction relative to that of the PBS control.

Substance	% inhibition of Factor XI mRNA in liver relative to the PBS control (Factor XI mRNA [1]) [%]	percent inhibition of Factor XI mRNA (human Factor XI mRNA; electroporation, 123.47 nM) [%]	percent inhibition of Factor XI mRNA (human Factor XI mRNA; electroporation, 370.37 nM) [%]	percent inhibition of Factor XI mRNA (human Factor XI mRNA; electroporation, 1,111.11 nM) [%]	percent inhibition of Factor XI mRNA (human Factor XI mRNA; electroporation, 3,333.33 nM) [%]	percent inhibition of Factor XI mRNA (human Factor XI mRNA; electroporation, 10,000.0 nM) [%]	% inhibition of Factor XI mRNA in liver relative to the PBS control (Factor XI mRNA [2]) [%]	Inhibition of Factor XI protein relative to the PBS control (Factor XI protein; Day 10) [%]	Inhibition of Factor XI protein relative to the PBS control (Factor XI protein; Day 17) [%]	Inhibition of Factor XI protein relative to the PBS control (Factor XI protein; Day 24) [%]	Inhibition of Factor XI protein relative to the PBS control (Factor XI protein; Day 31) [%]	Inhibition of Factor XI protein relative to the PBS control (Factor XI protein; Day 38) [%]	Inhibition of Factor XI protein relative to the PBS control (Factor XI protein; Day 45) [%]	Inhibition of Factor XI protein relative to the PBS control (Factor XI protein; Day 52) [%]	Inhibition of Factor XI protein relative to the PBS control (Factor XI protein; Day 55) [%]	Inhibition of Factor XI protein relative to the PBS control (Factor XI protein; Day −5) [%]	Inhibition of Factor XI protein relative to the PBS control (Factor XI protein; Day −14) [%]	Factor XI mRNA in liver (in words) (Factor XI mRNA [2]; cynomolgus monkeys, day 55, in comparison to the PBS control)	Factor XI protein levels (in words) (Factor XI protein; cynomolgus monkeys, Example 30)
416838 (antisense GCAACCGGGATGATGAGTGC; 5-10-5 gapmer, wing sugar chemistry not given here, further chemistry not given here) [compound 416838]	37																		
416850 (antisense TGCACAGTTTCTGGCAGGCC; 5-10-5 gapmer, wing sugar chemistry not given here, further chemistry not given here) [compound 416850]	84	0	12	36	74	73	68	20	31	38	52	51	53	53	58	0	0		
416858 (antisense ACGGCATTGGTGCACAGTTT; 5-10-5 gapmer, wing sugar chemistry not given here, further chemistry not given here) [compound 416858]	90	0	27	36	64	70	89	36	49	62	68	74	79	81	81	0	4		
416864 (antisense GGCAGCGGACGGCATTGGTG; 5-10-5 gapmer, wing sugar chemistry not given here, further chemistry not given here) [compound 416864]	44																		
417002 (antisense GGTGCACAGTTTCTGGCAGG; 2-13-5 gapmer, wing sugar chemistry not given here, further chemistry not given here) [compound 417002]	57																		
445522 (antisense eG*e[5mC]*eA*e[5mC]*eA*dG*dT*dT*dT*d[5mC]*dT*dG*dG*e[5mC]*eA*eG*eG*e[5mC]) [compound 445522]		0	0	44	63	74	89	36	50	61	70	73	77	80	82	0	2		
445531 (antisense eG*eG*e[5mC]*eA*eT*dT*dG*dG*dT*dG*d[5mC]*dA*d[5mC]*eA*eG*eT*eT*eT) [compound 445531]		8	16	52	61	77	66	9	22	23	27	29	32	32	37	1	0		
ISIS 416850: gapmer of Table 8 (antisense eT*eG*e[5mC]*eA*e[5mC]*dA*dG*dT*dT*dT*d[5mC]*dT*dG*dG*d[5mC]*eA*eG*eG*e[5mC]*e[5mC])																		significant reduction of Factor XI mRNA	time-dependent decrease in protein levels
